Where “and” joins values, the source holds several entries; their conditions need not be identical. Identical values can stand only once.
System: 817829-284-R-J1-PDC complex spheroids, viability
Experiment: Anticancer human tumor 817829-284-R-J1-PDC patient-derived colon adenocarcinoma cell line growth inhibition [CLK]
Conditions: for viability, T/C: stronger effect = lower value
Outline: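 Multi-cell-type spheroids combined patient-derived tumor cells with HUVEC endothelial cells and human mesenchymal stem cells. Paired agents were dosed in half-log steps down from about clinical Cmax, or from 10 microM where Cmax was unknown.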

[1] = curve of first compound, second compound 0.0316 µM
[2] = curve of first compound, second compound 0.1 µM
[3] = curve of first compound, second compound 0.316 µM
[4] = curve of first compound, second compound 1 µM
[5] = curve of first compound, second compound 3.16 µM
[6] = curve of first compound, second compound 10 µM
[7] = second compound 0.0316 µM, first compound 0.0316 µM
[8] = second compound 0.0316 µM, first compound 0.1 µM
[9] = second compound 0.0316 µM, first compound 0.316 µM
[10] = second compound 0.0316 µM, first compound 1 µM
[11] = second compound 0.0316 µM, first compound 3.16 µM
[12] = second compound 0.0316 µM, first compound 10 µM
[13] = second compound 0.1 µM, first compound 0.0316 µM
[14] = second compound 0.1 µM, first compound 0.1 µM
[15] = second compound 0.1 µM, first compound 0.316 µM
[16] = second compound 0.1 µM, first compound 1 µM
[17] = second compound 0.1 µM, first compound 3.16 µM
[18] = second compound 0.1 µM, first compound 10 µM
[19] = second compound 0.316 µM, first compound 0.0316 µM
[20] = second compound 0.316 µM, first compound 0.1 µM
[21] = second compound 0.316 µM, first compound 0.316 µM
[22] = second compound 0.316 µM, first compound 1 µM
[23] = second compound 0.316 µM, first compound 3.16 µM
[24] = second compound 0.316 µM, first compound 10 µM
[25] = second compound 1 µM, first compound 0.0316 µM
[26] = second compound 1 µM, first compound 0.1 µM
[27] = second compound 1 µM, first compound 0.316 µM
[28] = second compound 1 µM, first compound 1 µM
[29] = second compound 1 µM, first compound 3.16 µM
[30] = second compound 1 µM, first compound 10 µM
[31] = second compound 3.16 µM, first compound 0.0316 µM
[32] = second compound 3.16 µM, first compound 0.1 µM
[33] = second compound 3.16 µM, first compound 0.316 µM
[34] = second compound 3.16 µM, first compound 1 µM
[35] = second compound 3.16 µM, first compound 3.16 µM
[36] = second compound 3.16 µM, first compound 10 µM
[37] = second compound 10 µM, first compound 0.0316 µM
[38] = second compound 10 µM, first compound 0.1 µM
[39] = second compound 10 µM, first compound 0.316 µM
[40] = second compound 10 µM, first compound 1 µM
[41] = second compound 10 µM, first compound 3.16 µM
[42] = second compound 10 µM, first compound 10 µM
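Note: spheroids exposed to the agents for seven days before readout.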

## COC1C=CCC(C)C(C)S(=O)(=O)NC(=O)c2ccc3c(c2)N(CC2CCC21)CC1(CCCc2cc(Cl)ccc21)CO3 (stereo not given) + CN1CCN(c2cc(C(=O)Nc3cc4cc(-c5cnn(C)c5)ccc4cn3)ccn2)CC1
[1]
  IC50: 1410 nM
[2]
  IC50: < 31.6 nM
[3]
  IC50: < 31.6 nM
[4]
  IC50: < 31.6 nM
[5]
  IC50: < 31.6 nM
[6]
  IC50: < 31.6 nM
[7]
  viability, T/C: 52.5%
[8]
  viability, T/C: 70%
[9]
  viability, T/C: 51.2%
[10]
  viability, T/C: 63.3%
[11]
  viability, T/C: 28.2%
[12]
  viability, T/C: 7.26%
[13]
  viability, T/C: 21.4%
[14]
  viability, T/C: 18.1%
[15]
  viability, T/C: 16.3%
[16]
  viability, T/C: 12.3%
[17]
  viability, T/C: 5.31%
[18]
  viability, T/C: 2.6%
[19]
  viability, T/C: 1.91%
[20]
  viability, T/C: 1.47%
[21]
  viability, T/C: 1.45%
[22]
  viability, T/C: 1.31%
[23]
  viability, T/C: 1.5%
[24]
  viability, T/C: 0.95%
[25]
  viability, T/C: 0.08%
[26]
  viability, T/C: 0.21%
[27]
  viability, T/C: 0.16%
[28]
  viability, T/C: 0.07%
[29]
  viability, T/C: 0.35%
[30]
  viability, T/C: 0.05%
[31]
  viability, T/C: 0.15%
[32]
  viability, T/C: 0.16%
[33]
  viability, T/C: 0.23%
[34]
  viability, T/C: 0.46%
[35]
  viability, T/C: 0.28%
[36]
  viability, T/C: 0.08%
[37]
  viability, T/C: 0.48%
[38]
  viability, T/C: 0.13%
[39]
  viability, T/C: 0.19%
[40]
  viability, T/C: 0.31%
[41]
  viability, T/C: 0.37%
[42]
  viability, T/C: 0.17%

## C#Cc1c(F)ccc2cc(O)cc(-c3ncc4c(N5CC6CCC(C5)N6)nc(OCC56CCCN5CC(F)C6)nc4c3F)c12 (stereo not given) + CNC(=O)c1ccc(Nc2nc(OC3CCCC3)c3c(-c4ccc5nc(C)oc5c4)c[nH]c3n2)c(OC)c1
[1]
  IC50: < 31.6 nM
[2]
  IC50: < 31.6 nM
[3]
  IC50: < 31.6 nM
[4]
  IC50: < 31.6 nM
[5]
  IC50: < 31.6 nM
[6]
  IC50: 34.4 nM
[7]
  viability, T/C: 34.1%
[8]
  viability, T/C: 43.8%
[9]
  viability, T/C: 24.7%
[10]
  viability, T/C: 22.7%
[11]
  viability, T/C: 19.7%
[12]
  viability, T/C: 17.7%
[13]
  viability, T/C: 27%
[14]
  viability, T/C: 26.2%
[15]
  viability, T/C: 22.1%
[16]
  viability, T/C: 29.4%
[17]
  viability, T/C: 26%
[18]
  viability, T/C: 30.8%
[19]
  viability, T/C: 33.1%
[20]
  viability, T/C: 20.1%
[21]
  viability, T/C: 23.5%
[22]
  viability, T/C: 33.7%
[23]
  viability, T/C: 25.6%
[24]
  viability, T/C: 15.5%
[25]
  viability, T/C: 23.1%
[26]
  viability, T/C: 18.2%
[27]
  viability, T/C: 19%
[28]
  viability, T/C: 38%
[29]
  viability, T/C: 24.4%
[30]
  viability, T/C: 10%
[31]
  viability, T/C: 24.8%
[32]
  viability, T/C: 20.4%
[33]
  viability, T/C: 23%
[34]
  viability, T/C: 20.9%
[35]
  viability, T/C: 20.8%
[36]
  viability, T/C: 10.5%
[37]
  viability, T/C: 52.5%
[38]
  viability, T/C: 20.1%
[39]
  viability, T/C: 22.6%
[40]
  viability, T/C: 18.4%
[41]
  viability, T/C: 17.7%
[42]
  viability, T/C: 9.34%

## COc1cccc2c1C(=O)c1c(O)c3c(c(O)c1C2=O)CC(O)(C(=O)CO)CC3OC1CC(N)C(O)C(C)O1 (stereo not given)
Compound 0.0316 µM
  viability, T/C: 20.5%
Compound 0.1 µM
  viability, T/C: 16.4%
Compound 0.316 µM
  viability, T/C: 4.21%
Compound 1 µM
  viability, T/C: 0.22%
Compound 3.16 µM
  viability, T/C: 0.3%
Compound 10 µM
  viability, T/C: 0.85%
Curve of compound
  IC50: < 31.6 nM

## CC1COCCN1c1cc(C2(S(C)(=N)=O)CC2)nc(-c2ccnc3[nH]ccc23)n1 (stereo not given) + CN1CCN(c2cc(C(=O)Nc3cc4cc(-c5cnn(C)c5)ccc4cn3)ccn2)CC1
[1]
  IC50: 84.3 nM
[2]
  IC50: < 31.6 nM
[3]
  IC50: < 31.6 nM
[4]
  IC50: < 31.6 nM
[5]
  IC50: < 31.6 nM
[6]
  IC50: < 31.6 nM
[7]
  viability, T/C: 57.2%
[8]
  viability, T/C: 48.3%
[9]
  viability, T/C: 34.6%
[10]
  viability, T/C: 20.3%
[11]
  viability, T/C: 6.12%
[12]
  viability, T/C: 3.77%
[13]
  viability, T/C: 14.8%
[14]
  viability, T/C: 15.1%
[15]
  viability, T/C: 11.9%
[16]
  viability, T/C: 8.16%
[17]
  viability, T/C: 4.67%
[18]
  viability, T/C: 3.28%
[19]
  viability, T/C: 1.94%
[20]
  viability, T/C: 2.26%
[21]
  viability, T/C: 1.9%
[22]
  viability, T/C: 2.08%
[23]
  viability, T/C: 1.38%
[24]
  viability, T/C: 0.6%
[25]
  viability, T/C: 0.08%
[26]
  viability, T/C: 0.15%
[27]
  viability, T/C: 0.11%
[28]
  viability, T/C: 0.08%
[29]
  viability, T/C: 0.07%
[30]
  viability, T/C: 0.08%
[31]
  viability, T/C: 0.53%
[32]
  viability, T/C: 0.17%
[33]
  viability, T/C: 0.15%
[34]
  viability, T/C: 0.14%
[35]
  viability, T/C: 0.14%
[36]
  viability, T/C: 0.1%
[37]
  viability, T/C: 0.09%
[38]
  viability, T/C: 0.12%
[39]
  viability, T/C: 0.13%
[40]
  viability, T/C: 0.13%
[41]
  viability, T/C: 0.15%
[42]
  viability, T/C: 0.14%

## O=C(c1cc(Cc2n[nH]c(=O)c3ccccc23)ccc1F)N1CCN(C(=O)C2CC2)CC1
Compound 0.0316 µM
  viability, T/C: 87.7% and 101%
Compound 0.1 µM
  viability, T/C: 89% and 107%
Compound 0.316 µM
  viability, T/C: 81.1% and 74.2%
Compound 1 µM
  viability, T/C: 70.4% and 86.8%
Compound 3.16 µM
  viability, T/C: 52.5% and 54%
Compound 10 µM
  viability, T/C: 34.7% and 36.2%
Curve of compound
  IC50: 3680 nM and 4810 nM

— PubChem BioAssay AID2060599 (Molecular Pharmacology Branch, DTP, NCI, 2025)
